The values below come from patent US20240150377A1, “MODULATORS OF CYSTIC FIBROSIS TRANSMEMBRANE CONDUCTANCE REGULATOR” (VERTEX PHARMACEUTICALS INCORPORATED, priority 2020, published 2024).

Usually EC50 stands for the concentration needed to bring the measured effect to its halfway point.

Where two headings read alike, the source gives them in different places.

For the experiment, the target named is CFTR (Homo sapiens, UniProt P13569). As to the kind of experiment: Membrane potential dye, Enteroid Assay A. The class given is cell-based. The conditions noted are these: for Ent. A Max Activity: chloride transport as % of triple combination control (Enteroid Assay A); for EC50: human enteroid cells, 18-24 hours, acute 10 μM forskolin and 300 nM ivacaftor, read-out: Ent. A EC50. The procedure, abridged:
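Human intestinal enteroids incubated 18-24 h at 37 °C with test compound, then loaded with 20 μM methyl oxonol (with CaCC inhibitors). Chloride transport triggered in chloride-free buffer with 10 μM forskolin, 100 μM IBMX, 300 nM Compound III; fluorescence read 15 min, expressed as % of a triple-combination corrector/potentiator control.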

CFTR, sequence (P13569 with tags, fused parts or gaps DEL508-508): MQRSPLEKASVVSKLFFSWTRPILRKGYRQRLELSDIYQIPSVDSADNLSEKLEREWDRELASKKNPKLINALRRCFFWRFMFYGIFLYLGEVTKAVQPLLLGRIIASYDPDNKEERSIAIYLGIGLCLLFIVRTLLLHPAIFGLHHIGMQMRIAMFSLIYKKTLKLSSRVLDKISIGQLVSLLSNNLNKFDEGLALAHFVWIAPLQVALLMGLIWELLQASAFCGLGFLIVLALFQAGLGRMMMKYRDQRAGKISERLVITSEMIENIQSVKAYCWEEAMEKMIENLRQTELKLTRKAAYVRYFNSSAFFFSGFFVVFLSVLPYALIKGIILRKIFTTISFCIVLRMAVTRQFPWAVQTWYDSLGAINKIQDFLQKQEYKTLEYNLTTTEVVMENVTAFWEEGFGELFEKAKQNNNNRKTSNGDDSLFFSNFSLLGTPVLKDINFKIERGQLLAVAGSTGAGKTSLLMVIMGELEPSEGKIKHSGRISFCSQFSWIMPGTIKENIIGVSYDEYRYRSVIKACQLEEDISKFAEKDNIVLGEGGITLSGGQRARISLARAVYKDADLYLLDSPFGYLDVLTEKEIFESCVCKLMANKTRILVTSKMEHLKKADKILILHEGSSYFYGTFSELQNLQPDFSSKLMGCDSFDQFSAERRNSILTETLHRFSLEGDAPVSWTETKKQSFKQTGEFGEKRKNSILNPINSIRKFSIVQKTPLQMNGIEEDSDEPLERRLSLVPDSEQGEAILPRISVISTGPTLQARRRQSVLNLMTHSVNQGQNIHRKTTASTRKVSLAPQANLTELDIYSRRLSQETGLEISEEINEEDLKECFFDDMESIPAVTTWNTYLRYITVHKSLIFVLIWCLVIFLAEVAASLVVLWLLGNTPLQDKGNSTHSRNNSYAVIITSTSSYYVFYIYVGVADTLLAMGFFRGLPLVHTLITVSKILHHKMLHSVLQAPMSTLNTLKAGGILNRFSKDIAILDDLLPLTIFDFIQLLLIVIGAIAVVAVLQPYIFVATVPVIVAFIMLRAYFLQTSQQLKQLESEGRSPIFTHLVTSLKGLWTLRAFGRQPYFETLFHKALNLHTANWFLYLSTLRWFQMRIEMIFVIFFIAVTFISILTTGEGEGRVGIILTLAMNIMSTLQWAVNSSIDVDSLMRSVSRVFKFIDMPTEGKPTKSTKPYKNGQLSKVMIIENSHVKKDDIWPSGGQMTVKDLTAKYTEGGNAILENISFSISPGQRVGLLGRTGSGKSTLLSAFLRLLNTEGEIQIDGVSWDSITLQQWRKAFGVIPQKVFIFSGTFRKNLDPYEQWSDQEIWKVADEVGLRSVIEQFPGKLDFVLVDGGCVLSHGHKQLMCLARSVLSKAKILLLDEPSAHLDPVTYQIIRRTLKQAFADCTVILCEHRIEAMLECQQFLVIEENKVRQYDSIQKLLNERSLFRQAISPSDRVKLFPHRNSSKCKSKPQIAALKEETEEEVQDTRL

As to `COc1ccccc1CN1C(=O)c2cccc(c2)S(=O)(=O)Nc2nc(cc(-c3c(C)cccc3C)n2)OC[C@H]1CC(C)C` [Compound 349], where the note is “Table 6”, the “Ent. A Max Activity” value is listed as “+++ (+++ is >60%)” and the EC50 was less than 1 µM. For the compound `Cc1cccc(C)c1-c1cc2nc(n1)NS(=O)(=O)c1cccc(c1)C(=O)N(CCC(C)(C)C)[C@H](C)CO2` [Compound 987], where the note is “Table 7”, the “Ent. A Max Activity” value was “+ (+ is <30%)” and the EC50 was less than 1 µM.

`Cc1cccc(C)c1-c1cc2nc(n1)NS(=O)(=O)c1cccc(c1)C(=O)N(C)[C@H](c1ccc(C(C)(C)C)cc1)CO2` [Compound 1010]: for the setting “Table 7”, the “Ent. A Max Activity” value is “++ (++ is 30-60%)” and the EC50 was less than 1 µM. Regarding `Cc1cccc(C)c1-c1cc2nc(n1)NS(=O)(=O)c1cccc(c1)C(=O)N(Cc1ccc(N3CCC3)nc1)[C@H](CC(C)C)CO2` [Compound 950], under “Table 7”, the “Ent. A Max Activity” value was “+++ (+++ is >60%)” and the EC50 is less than 1 µM.

With `Cc1cccc(C)c1-c1cc2nc(n1)NS(=O)(=O)c1cccc(c1)C(=O)N(C)CC(c1ccc(-c3ccncc3)cc1)O2` (stereo not drawn) [Compound 9, 6-(2,6-Dimethylphenyl)-12-methyl-2,2-dioxo-10-[4-(4-pyridyl)phenyl]-9-oxa-2λ^6-thia-3,5,12,19-tetrazatricyclo[12.3.1.14,8]nonadeca-1(18),4(19),5,7,14,16-hexaen-13-one], where the note is “Table 6”, the “Ent. A Max Activity” value is “++ (++ is 30-60%)” and the concentration for a half-maximal effect (EC50) is less than 1 µM. Turning to `Cc1cccc(C)c1-c1cc2nc(n1)NS(=O)(=O)c1cccc(c1)C(=O)N(Cc1ccc(NCCO)nc1)[C@H](CC(C)C)CO2` [Compound 946], under “Table 7”, the “Ent. A Max Activity” value was “+++ (+++ is >60%)” and the EC50 is less than 1 µM.

Turning to `Cc1cccc(C)c1-c1cc2nc(n1)NS(=O)(=O)c1cccc(c1)CN(C(=O)CC1CCCCC1)[C@H](CC(C)C)CO2` [Compound 1050], where the note is “Table 7”, the “Ent. A Max Activity” value is “+ (+ is <30%)” and the EC50 lay within 1 to 3 µM. As to `Cc1cccc(C)c1-c1cc2nc(n1)NS(=O)(=O)c1cccc(c1)C(=O)N(Cc1ccc(C3=CCN(C)CC3)cc1)[C@H](CC(C)C)CO2` [Compound 86, (11R)-6-(2,6-Dimethylphenyl)-11-isobutyl-12-[[4-(1-methyl-3,6-dihydro-2H-pyridin-4-yl)phenyl]methyl]-2,2-dioxo-9-oxa-2λ^6-thia-3,5,12,19-tetrazatricyclo[12.3.1.14,8]nonadeca-1(18),4(19),5,7,14,16-hexaen-13-one], where the note is “Table 6”, the “Ent. A Max Activity” value is “+++ (+++ is >60%)” and the EC50 is less than 1 µM. `Cc1cccc(C)c1-c1cc2nc(n1)NS(=O)(=O)c1cccc(c1)C(=O)N(Cc1ccc(NCCN(C)C)nc1)[C@H](CC(C)C)CO2` [Compound 944]: under “Table 7”, the “Ent. A Max Activity” value is “+++ (+++ is >60%)” and the EC50 was less than 1 µM. The like results for `Cc1cccc(C)c1-c1cc2nc(n1)NS(=O)(=O)c1cccc(c1)C(=O)N(Cc1ccc(N(C)CCN(C)C)nc1)[C@H](CC(C)C)CO2` [Compound 943] were, in that order, “+++ (+++ is >60%)” and less than 1 µM. For the compound `COC1CCN(c2ccc(CN3C(=O)c4cccc(c4)S(=O)(=O)Nc4nc(cc(-c5c(C)cccc5C)n4)OC[C@H]3CC(C)C)cn2)CC1` [Compound 971], under “Table 7”, the “Ent. A Max Activity” value is “+++ (+++ is >60%)” and the EC50 is less than 1 µM. Take `Cc1cccc(C)c1-c1cc2nc(n1)NS(=O)(=O)c1cccc(c1)C(=O)N(C)CCO2` [Compound 979]: the “Ent. A Max Activity” value (Table 6) was “+ (+ is <30%)”. With `Cc1cccc(C)c1-c1cc2nc(n1)NS(=O)(=O)c1cccc(c1)C(=O)N(C)C[C@H](c1ccccc1)O2` [Compound 672], where the note is “Table 6”, the “Ent. A Max Activity” value is reported as “++ (++ is 30-60%)” and the EC50 was less than 1 µM. Take `Cc1cccc(C)c1-c1cc2nc(n1)NS(=O)(=O)c1cccc(c1)C(=O)N(CCC1CCOCC1)[C@H](CC1(C(F)(F)F)CC1)CO2` [Compound 681]: for the setting “Table 7”, the “Ent. A Max Activity” value is “+++ (+++ is >60%)” and the EC50 was less than 1 µM.

In the case of `Cc1cccc(C)c1-c1cc2nc(n1)NS(=O)(=O)c1cccc(c1)C(=O)N(CCCC(=O)O)[C@H](CC(C)C)CO2` [Compound 359], where the note is “Table 6”, the “Ent. A Max Activity” value was “++ (++ is 30-60%)” and the EC50 lay in the range of 3 to 30 µM.

Regarding `Cc1cccc(C)c1-c1cc2nc(n1)NS(=O)(=O)c1cccc(c1)C(=O)N(Cc1ccc(N3CCC[C@@H]3C)nc1)[C@H](CC(C)C)CO2` [Compound 960], under “Table 7”, the “Ent. A Max Activity” value is given as “+++ (+++ is >60%)” and the EC50 was less than 1 µM.

Consider `Cc1cccc(C)c1-c1cc2nc(n1)NS(=O)(=O)c1cccc(c1)C(=O)N(Cc1ccc(=O)[nH]c1)[C@H](CC(C)C)CO2` [Compound 1109], for which, where the note is “Table 6”, the “Ent. A Max Activity” value is on record as “+++ (+++ is >60%)” and the EC50 lay within 1 to 3 µM.

`Cc1cccc(C)c1-c1cc2nc(n1)NS(=O)(=O)c1cccc(c1)C(=O)N(CC1CCCN1)[C@H](CC(C)C)CO2` (stereo partly drawn) [Compound 344]: under “Table 6”, the “Ent. A Max Activity” value is given as “+++ (+++ is >60%)” and the EC50 is less than 1 µM.

For the compound `Cc1cccc(C)c1-c1cc2nc(n1)NS(=O)(=O)c1cccc(c1)C(=O)N(C)CC(CN(CCC(C)(C)C)CCC(C)(C)C)O2` (stereo not drawn) [Compound 98, 10-[[bis(3,3-Dimethylbutyl)amino]methyl]-6-(2,6-dimethylphenyl)-12-methyl-2,2-dioxo-9-oxa-2λ^6-thia-3,5,12,19-tetrazatricyclo[12.3.1.14,8]nonadeca-1(18),4(19),5,7,14,16-hexaen-13-one], where the note is “Table 6”, the “Ent. A Max Activity” value is listed as “+++ (+++ is >60%)” and the EC50 was less than 1 µM. As for `COc1ncccc1CN1C(=O)c2cccc(c2)S(=O)(=O)Nc2nc(cc(-c3c(C)cccc3C)n2)OC[C@H]1CC(C)C` [Compound 420], for the setting “Table 6”, the “Ent. A Max Activity” value is reported as “+++ (+++ is >60%)” and the EC50 is less than 1 µM. Turning to `Cc1cccc(C)c1-c1cc2nc(n1)NS(=O)(=O)c1cccc(c1)C(=O)N(Cc1ccc(N3CC[C@@H](C)C3)nc1)[C@H](CC(C)C)CO2` [Compound 958], for the setting “Table 7”, the “Ent. A Max Activity” value is “+++ (+++ is >60%)” and the EC50 was less than 1 µM. As to `Cc1cccc(C)c1-c1cc2nc(n1)NS(=O)(=O)c1cccc(c1)C(=O)N(CC1CC3(CCN(C)CC3)C1)[C@H](CC(C)C)CO2` [Compound 89, (11R)-6-(2,6-Dimethylphenyl)-11-isobutyl-12-[(7-methyl-7-azaspiro[3.5]nonan-2-yl)methyl]-2,2-dioxo-9-oxa-2λ^6-thia-3,5,12,19-tetrazatricyclo[12.3.1.14,8]nonadeca-1(18),4(19),5,7,14,16-hexaen-13-one], under “Table 7”, the “Ent. A Max Activity” value is reported as “+++ (+++ is >60%)” and the EC50 was less than 1 µM. In the case of `Cc1cccc(C)c1-c1cc2nc(n1)NS(=O)(=O)c1cccc(c1)C(=O)N(Cc1cnc3ccccn13)[C@H](CC(C)C)CO2` [Compound 368], where the note is “Table 6”, the “Ent. A Max Activity” value was “+++ (+++ is >60%)” and the EC50 was less than 1 µM. For `Cc1cccc(C)c1-c1cc2nc(n1)NS(=O)(=O)c1cccc(c1)CN(C(=O)CC1CCN(C)CC1)[C@H](CC(C)C)CO2` [Compound 1048], for the setting “Table 7”, the “Ent. A Max Activity” value is recorded as “+++ (+++ is >60%)” and the EC50 was 1 to 3 µM. Take `Cc1cccc(C)c1-c1cc2nc(n1)NS(=O)(=O)c1cccc(c1)C(=O)N(Cc1ccc(N3CCC(O)CC3)nc1)[C@H](CC(C)C)CO2` [Compound 966]: where the note is “Table 7”, the “Ent. A Max Activity” value is reported as “+++ (+++ is >60%)” and the EC50 was less than 1 µM. For `CNC(=O)c1ccc(CN2C(=O)c3cccc(c3)S(=O)(=O)Nc3nc(cc(-c4c(C)cccc4C)n3)OC[C@H]2CC2(C(F)(F)F)CC2)cc1` [Compound 683], under “Table 7”, the “Ent. A Max Activity” value is “+++ (+++ is >60%)” and the EC50 was less than 1 µM.
